Measured values taken from BindingDB's records for patent US10487086 (Bristol Myers Squibb, 2019).

Target: Coagulation factor XI (Homo sapiens, UniProt P03951)
Test: Factor XIa assay
Protocol: The effectiveness of compounds of the present invention as inhibitors of the coagulation Factors XIa, VIIa, IXa, Xa, XIIa, plasma kallikrein or thrombin, can be determined using a relevant purified serine protease, respectively, and an appropriate synthetic substrate. The rate of hydrolysis of the chromogenic or fluorogenic substrate by the relevant serine protease was measured both in the absence and presence of compounds of the present invention. […] A decrease in the rate of absorbance or fluorescence change in the presence of inhibitor is indicative of enzyme inhibition. Such methods are known to one skilled in the art. […] Determinations were made using purified human Factor XIa at a final concentration of 25-200 pM (Haematologic Technologies) and the synthetic substrate S-2366 (pyroGlu-Pro-Arg-pNA; CHROMOGENIX or AnaSpec) at a concentration of 0.0002-0.001 M.

Sequence of Coagulation factor XI (P03951 19-387 limits assumed): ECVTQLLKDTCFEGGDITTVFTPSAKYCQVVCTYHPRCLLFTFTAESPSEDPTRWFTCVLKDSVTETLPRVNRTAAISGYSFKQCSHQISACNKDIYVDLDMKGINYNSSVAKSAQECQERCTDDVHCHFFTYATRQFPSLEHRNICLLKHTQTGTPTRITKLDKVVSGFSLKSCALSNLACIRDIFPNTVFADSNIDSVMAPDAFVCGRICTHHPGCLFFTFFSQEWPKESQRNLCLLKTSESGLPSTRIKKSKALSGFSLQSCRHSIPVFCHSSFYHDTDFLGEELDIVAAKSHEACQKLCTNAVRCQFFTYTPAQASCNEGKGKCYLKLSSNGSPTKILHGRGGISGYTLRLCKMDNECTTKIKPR
Sequence of Coagulation factor XI (P03951 388-625 limits assumed): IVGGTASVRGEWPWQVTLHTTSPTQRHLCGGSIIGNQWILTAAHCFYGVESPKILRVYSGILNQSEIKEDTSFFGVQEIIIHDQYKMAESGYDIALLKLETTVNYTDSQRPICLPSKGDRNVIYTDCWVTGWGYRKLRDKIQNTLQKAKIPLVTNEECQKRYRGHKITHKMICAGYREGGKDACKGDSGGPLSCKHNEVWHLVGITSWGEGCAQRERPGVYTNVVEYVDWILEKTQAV

- Ki: 580 nM
SMILES: COC(=O)Nc1ccc2c(c1)N[C@@H](C(=O)O)CCCC[C@H](NC(=O)/C=C/c1cc(Cl)ccc1-n1cnnn1)c1nc-2c[nH]1 [US10487086, Example I-84]
